The results in this text go back to patent US20190144423A1, “AMIDE-SUBSTITUTED PYRIDINYLTRIAZOLE DERIVATIVES AND USES THEREOF” (BAYER PHARMA AKTIENGESELLSCHAFT, priority 2016, published 2019).

Experiment [1] has as its target T1, human V1a receptor (Homo sapiens, UniProt P37288).
T1 construct: expressed in transfected cells; host or cells: CHO K1 (ATCC), also stably transfected with a modified aequorin
Put plainly: Cellular in vitro assay for determining vasopressin receptor activity (V1a cell line, aequorin luminescence). Format: cell-based. To be noted: CHO cell line transfected with human V1a receptor; antagonism of [Arg8]-vasopressin at EC50; Table 1A, compounds of the invention; read-out: IC50 hV1a. Here is the method: (§1) B-1. Cellular In Vitro Assay for Determining Vasopressin Receptor Activity
(§2) The identification of agonists and antagonists of the V1a and V2 vasopressin receptors from humans, rats and dogs as well as the quantification of the activity of the compounds of the invention is carried out using recombinant cell lines. These cell lines originally derive from a hamster's ovary epithelial cell (Chinese Hamster Ovary, CHO K1, ATCC: American Type Culture Collection, Manassas, Va. 20108, USA). The test cell lines constitutively express the human, rat or dog V1a or V2 receptors. In case of the Gαq-coupled V1a receptors, cells are also stably transfected with a modified form of the calcium-sensitive photoproteins aequorin (human and rat V1a) or obelin (dog V1a), which, after reconstitution with the cofactor coelenterazine, emit light when there are increases in free calcium concentrations [Rizzuto R, Simpson A W, Brini M, Pozzan T, Nature 358, 325-327 (1992); Illarionov B A, Bondar V S, Illarionova V A, Vysotski E S, Gene 153 (2), 273-274 (1995)]. The resulting vasopressin receptor cells react to stimulation of the recombinantly expressed V1a receptors by intracellular release of calcium ions, which can be quantified by the resulting photoprotein luminescence. The Gs-coupled V2 receptors are stably transfected into cell lines expressing the gene for firefly luciferase under control of a CRE-responsible promoter. Activation of V2 receptors induces the activation of the CRE-responsive promoter via cAMP increase, thereby inducing the expression of firefly luciferase. The light emitted by photoproteins of V1a cell lines as well as the light emitted by firefly luciferase of V2 cell lines corresponds to the activation or inhibition of the respective vasopressin receptor. The bioluminescence of the cell lines is detected using a suitable luminometer [Milligan G, Marshall F, Rees S, Trends in Pharmacological Sciences 17, 235-237 (1996)].
Vasopressin V1a Receptor Cell Lines:
On the day before the assay, the cells are plated out in culture medium (DMEM/F12, 2% FCS, 2 mM glutamine, 10 mM HEPES, 5 μg/ml coelenterazine) in 384-well microtiter plates and kept in a cell incubator (96% humidity, 5% v/v CO2, 37° C.). On the day of the assay, test compounds in various concentrations are placed for 10 minutes in the wells of the microtiter plate before the agonist [Arg^8]-vasopressin at EC50 concentration is added. The resulting light signal is measured immediately in a luminometer.
(§3) Table 1A below lists individual IC50 values for the compounds of the invention (including racemic mixtures as well as separated enantiomers) that were obtained from cell lines transfected with the human V1a or V2 receptor: […]

For experiment [2], the target named is T2, human V2 receptor (Homo sapiens, UniProt P30518).
T2 construct: expressed in transfected cells; host or cells: CHO K1 (ATCC) line expressing firefly luciferase under a CRE-responsive promoter
T2 sequence (P30518 whole entry): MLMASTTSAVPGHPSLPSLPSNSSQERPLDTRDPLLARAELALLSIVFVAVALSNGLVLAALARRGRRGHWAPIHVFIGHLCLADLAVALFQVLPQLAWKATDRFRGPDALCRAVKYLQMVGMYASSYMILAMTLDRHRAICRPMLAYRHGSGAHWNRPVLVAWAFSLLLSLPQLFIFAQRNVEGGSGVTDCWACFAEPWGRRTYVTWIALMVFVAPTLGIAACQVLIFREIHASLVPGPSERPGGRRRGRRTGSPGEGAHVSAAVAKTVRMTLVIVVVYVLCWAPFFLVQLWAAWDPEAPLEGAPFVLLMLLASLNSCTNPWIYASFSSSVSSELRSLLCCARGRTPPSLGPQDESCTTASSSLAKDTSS
As to the kind of experiment: Cellular in vitro assay for determining vasopressin receptor activity (V2 cell line, CRE-luciferase). The class given is cell-based. To be noted: CHO cell line transfected with human V2 receptor; antagonism of [Arg8]-vasopressin at EC50; Table 1A, compounds of the invention; read-out: IC50 hV2. Here is the method: as §1, §2
Vasopressin V2 Receptor Cell Lines:
On the day before the assay, the cells are plated out in culture medium (DMEM/F12, 2% FCS, 2 mM glutamine, 10 mM HEPES) in 384-well microtiter plates and kept in a cell incubator (96% humidity, 5% v/v CO2, 37° C.). On the day of the assay, test compounds in various concentrations and the agonist [Arg^s]-vasopressin at EC50 concentration are added together to the wells, and plates are incubated for 3 hours in a cell incubator. Upon addition of the cell lysis reagent Triton™ and the substrate luciferin, luminescence of firefly luciferase is measured in a luminometer.
as §3

T1 sequence (P37288 whole entry): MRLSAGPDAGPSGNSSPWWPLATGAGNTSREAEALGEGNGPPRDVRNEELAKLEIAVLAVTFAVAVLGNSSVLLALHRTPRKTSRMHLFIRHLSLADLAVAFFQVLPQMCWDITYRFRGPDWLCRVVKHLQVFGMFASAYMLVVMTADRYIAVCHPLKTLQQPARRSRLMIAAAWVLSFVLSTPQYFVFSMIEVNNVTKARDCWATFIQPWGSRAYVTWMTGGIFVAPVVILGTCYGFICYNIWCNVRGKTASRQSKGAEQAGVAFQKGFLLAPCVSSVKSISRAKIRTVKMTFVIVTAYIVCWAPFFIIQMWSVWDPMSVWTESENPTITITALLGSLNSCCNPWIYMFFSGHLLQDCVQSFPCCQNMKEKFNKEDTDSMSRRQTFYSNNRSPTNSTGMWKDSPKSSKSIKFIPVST

By IC50 is commonly meant the concentration that inhibits the measured activity by half. For the compound `NC(=O)c1nc(Cn2nc(-c3ccc(Cl)cc3)n(C[C@H](O)C(F)(F)F)c2=O)nn1-c1cnccc1C(F)(F)F` [Example 7, 3-({3-(4-Chlorophenyl)-5-oxo-4-[(2S)-3,3,3-trifluoro-2-hydroxypropyl]-4,5-dihydro-1H-1,2,4-triazol-1-yl}methyl)-1-[4-(trifluoromethyl)pyridin-3-yl]-1H-1,2,4-triazole-5-carboxamide], the 50% inhibitory concentration (IC50) is 2.5 nM in experiment [1] and 293 nM in experiment [2].
